# Reference: article PMC8058733, “A pain killer without analgesic tolerance designed by co-targeting PSD-95-nNOS interaction and α2-containning GABAARs” (Theranostics, 2021)
# How the values were obtained:
# α2 subunit of GABAARs = assay: Western blot of GABAAR subunit levels in the spinal dorsal horn; assay type: in vivo, rat; settings: SNL rats, (+)-borneol 5 mg/kg/d, i.v., × 11 d
# Procedure: (§1) Western bolt analysis was performed as described previously. Briefly, the dorsal spinal cord (L4 and L5) was dissected from sham or SNL rats and homogenized in 400μl RIPA lysis buffer containing 1 μM pepstatin, 10 μg/ml aprotinin, 10 μg/ml leupeptin, 10 μg/ml and 10 μM phenylmethylsufonyl fluoride (PMSF). After lysis for 30 min in ice, samples were centrifuged at 12,000 g for 15 min. The protein content in each supernatant fraction was determined by using Bradford's solution, and samples containing equivalent amounts of protein were applied to 10% or 15% (10% for GABA(A)α2 and α3, 15% for BDNF) acrylamide denaturing gels (SDS-PAGE). The separated proteins were transferred onto a polyvinylidene fluoride membrane. The primary antibodies were as follows: rabbit anti-GABA(A)α2 (1:500; Millipore AB5948), rabbit anti-GABA(A)α3 (1:500; Millipore AB5594), rabbit anti-BDNF (1:1000; Thermo PA1-18357, RRID:AB_1070634). Internal control was performed using rabbit anti-β-actin (1:1000; Bioss bs-0061R, RRID: AB_10855480). Appropriate horseradish peroxidase-linked secondary antibodies were used for detection by enhanced chemiluminescence (Bio-Rad).
# α3 subunit of GABAARs = assay: as above; assay type: in vivo, rat; settings: SNL rats, (+)-borneol 5 mg/kg/d, i.v., × 11 d
# Procedure: as §1
# BDNF = assay: Western blot of BDNF levels in the spinal dorsal horn after SNL; assay type: in vivo, rat; settings: SNL rats, (+)-borneol 10 mg/kg, i.v., × 3 d
# Procedure: as §1
# [1] = test system: putative excitatory neurons of brain cortex; assay: Potentiation of GABA-evoked currents in acute brain cortex slices; assay type: cell-based; settings: Neuron; rat brain cortex slices, n = 12
# [2] = test system: SNL-induced mechanical hyperalgesia; assay: SNL-induced mechanical hyperalgesia, paw withdrawal threshold; assay type: in vivo, rat; settings: SNL rats, (+)-borneol 5 mg/kg/d, i.v., 11 consecutive days
# Procedure: Neuropathic pain was induced by segmental spinal nerve ligation (SNL). Animals were anesthetized with isoflurane. After the loss of righting reflex, the animal was fixed in the prone position. The SNL model was prepared as described previously: a median skin incision with about 3-5 cm length in L4-S2 level of the mouse back was made, the muscles next to the vertebrae till the sixth lumbar protruding were separated, the L5/L6 joint protruding on the right side was exposed and excised, and L6 processus transversus was partially split so that the L4-L6 spinal nerves on the right side were exposed. L5 nerve was gently isolated and tightly ligated with 5-0 silk thread. The wound was closed with 4-0 silk thread suture and covered with iodine solution. After nerve ligation, animals with signs of paw clonus or autotomy were excluded from further experiments.
# Osmotic minipumps (models 1004 for mouse and 2ML4 for rat; Alzet) and intrathecal cannulas (0.61 mm outer diameter and 0.28 mm inner diameter for mouse, 0.99 mm outer diameter and 0.58 mm inner diameter for rat) were filled with a solution of PBS. Cannulas were inserted into the subarachnoid space through the space between the L5 and L6 vertebrae and the tip of the catheter was implanted at the L5 spinal segmental level.
# For rats, the threshold for 50% paw withdrawal (50% PWT) response to mechanical stimulus was assessed through a dynamic plantar apparatus (Ugo Basile, Italy). The 50% PWT refers to that the probability of paw withdrawal response to repeated mechanical stimulus is 50%. Rats were placed individually in a plastic cage (17 × 15 × 15 cm) with a wire mesh bottom which allowed full access to the paws. Behavioral accommodation was allowed for 15-20 min until cage exploration and major grooming activities ceased. A maximal cut-off of 50g/50s was set to prevent tissue damage. To record the PWT in response to mechanical stimulus, each rat was measured five times with a 5-min interval, and the mean value was recorded after excluding maximal and minimum values. The experimental procedures were performed in a double-blind manner.
# α1-containing GABAAR = test system: α1-containing GABAAR; design: method as in PMID 15763546; settings: Xenopus laevis oocytes, high dose; cited from earlier work
# α3β3γ2 GABAARs = biological target: T1, α3β3γ2 GABAARs (Homo sapiens, UniProt P18507+P28472+P34903); assay: Potentiation of GABA-evoked currents, whole-cell patch-clamp in HEK293 cells transiently expressing recombinant GABAARs; assay type: cell-based; settings: α3β3γ2, n = 8
# T1 construct: Shanghai Genechem Co.,Ltd (γ2 plasmid); host or cells: HEK293
# Procedure: (§2) The affinities of drugs for α1, α2, α3 and α5 subunits were studied in the HEK293 cells (from FuHeng Biology, Shanghai, China) transiently expressing recombinant GABAARs (α1β2γ2, α2β3γ2, α3β3γ2 and α5β2γ2) as described previously. Briefly, the HEK293 cells were cultured in MEM medium supplemented with 10% FBS (fetal bovine serum, Gibico), 1% L-glutamine (Gibco) and 1% mycillin (Gibco). Before transfection, the cells were subcultured onto a 3.5cm dish at the ratio of 1:2. Then, the plasmids of α1/α2/α3/α5 (Origene), β2/β3 (Origene) and γ2 (Shanghai Genechem Co.,Ltd ) (5μg total DNA, ratio 1:1:2) were transfected using Fugene®HD transfection reagent (Promega). The γ2 subunit contained GFP from IRES (internal ribosomal entry site) and was used as a marker of the successful transfection. Cells were used for electrophysiology recording 18-36 hours after transfection.
# (§3) Electrophysiology recordings from HEK293 cells were performed as described previously. Briefly, whole-cell patch-clamp recordings of GABA-evoked currents were made at 30 °C with the holding potential of -60 mV. The internal solution (solution in recording electrodes) contained (in mM): 120 CsCl, 10 EGTA, 10 HEPES, 4 MgCl2, 0.5 GTP, 2 ATP and pH was adjusted to 7.4 with CsOH and the external solution contained (in mM): 150 NaCl, 10 KCl, 2 CaCl2, 1 MgCl, 10 HEPES, 10 Glucose and pH was adjusted to 7.4 with NaOH. ACSF was bubbled continuously with carbogen (95%O2 and 5%CO2). For the recording of GABA-evoked currents, the slides were transferred to a recording chamber, which was perfused with ACSF at a rate of 4 ml/min. The cells were viewed under upright microscopy (Olympus), and GFP-positive cells were selected to record the currents. The interval time between each different dose of GABA was controlled, 3 to 5 minutes to avoid the desensitization of GABAARs.
# α2β3γ2 GABAARs = biological target: T2, α2β3γ2 GABAARs (Homo sapiens, UniProt P18507+P28472+P47869); assay: as above; assay type: cell-based; settings: α2β3γ2, n = 8
# T2 construct: Shanghai Genechem Co.,Ltd (γ2 plasmid); host or cells: HEK293
# Procedure: as §2, §3
# α1β2γ2 GABAARs = biological target: T3, α1β2γ2 GABAARs (Homo sapiens, UniProt P14867+P18507+P47870); assay: as above; assay type: cell-based; settings: α1β2γ2
# T3 construct: Shanghai Genechem Co.,Ltd (γ2 plasmid); host or cells: HEK293
# Procedure: as §2, §3
# locomotor activity = assay: Open field test, locomotor activity; assay type: in vivo; settings: mice, (+)-borneol 45 mg/kg, i.v.
# Procedure: The locomotor activity was assessed by the open field test as described previously. The apparatus consisted of a large area composed of plastic, surrounded by walls that were 100 cm high. The floor was 50 × 50 cm for mice; the overall illumination was 25 lux. Each animal was gently placed in the center of the open field, and its behavior was videotaped. The distance the animals travelled was measured in a 5-min session using ANY-maze (Stoelting Co., IL, USA). After each trial, the plate was cleaned with 70% EtOH. No stressor was applied to the animals for at least 12 h before the test.
# PSD-95-nNOS complex = biological target: T4, PSD-95-nNOS complex (Rattus norvegicus, UniProt P29476); assay: Co-IP of PSD-95-nNOS complex levels in the spinal dorsal horn after SNL; assay type: in vivo; settings: SNL rats, (+)-borneol 5 mg/kg/d, i.v., × 3 d
# T4 construct: dorsal spinal cord tissues (L4 and L5) were lysed in 400 μl RIPA; from tissue; host or cells: rat dorsal spinal cord (L4 and L5), SNL model
# T4 sequence (P29476 whole entry, one chain of several): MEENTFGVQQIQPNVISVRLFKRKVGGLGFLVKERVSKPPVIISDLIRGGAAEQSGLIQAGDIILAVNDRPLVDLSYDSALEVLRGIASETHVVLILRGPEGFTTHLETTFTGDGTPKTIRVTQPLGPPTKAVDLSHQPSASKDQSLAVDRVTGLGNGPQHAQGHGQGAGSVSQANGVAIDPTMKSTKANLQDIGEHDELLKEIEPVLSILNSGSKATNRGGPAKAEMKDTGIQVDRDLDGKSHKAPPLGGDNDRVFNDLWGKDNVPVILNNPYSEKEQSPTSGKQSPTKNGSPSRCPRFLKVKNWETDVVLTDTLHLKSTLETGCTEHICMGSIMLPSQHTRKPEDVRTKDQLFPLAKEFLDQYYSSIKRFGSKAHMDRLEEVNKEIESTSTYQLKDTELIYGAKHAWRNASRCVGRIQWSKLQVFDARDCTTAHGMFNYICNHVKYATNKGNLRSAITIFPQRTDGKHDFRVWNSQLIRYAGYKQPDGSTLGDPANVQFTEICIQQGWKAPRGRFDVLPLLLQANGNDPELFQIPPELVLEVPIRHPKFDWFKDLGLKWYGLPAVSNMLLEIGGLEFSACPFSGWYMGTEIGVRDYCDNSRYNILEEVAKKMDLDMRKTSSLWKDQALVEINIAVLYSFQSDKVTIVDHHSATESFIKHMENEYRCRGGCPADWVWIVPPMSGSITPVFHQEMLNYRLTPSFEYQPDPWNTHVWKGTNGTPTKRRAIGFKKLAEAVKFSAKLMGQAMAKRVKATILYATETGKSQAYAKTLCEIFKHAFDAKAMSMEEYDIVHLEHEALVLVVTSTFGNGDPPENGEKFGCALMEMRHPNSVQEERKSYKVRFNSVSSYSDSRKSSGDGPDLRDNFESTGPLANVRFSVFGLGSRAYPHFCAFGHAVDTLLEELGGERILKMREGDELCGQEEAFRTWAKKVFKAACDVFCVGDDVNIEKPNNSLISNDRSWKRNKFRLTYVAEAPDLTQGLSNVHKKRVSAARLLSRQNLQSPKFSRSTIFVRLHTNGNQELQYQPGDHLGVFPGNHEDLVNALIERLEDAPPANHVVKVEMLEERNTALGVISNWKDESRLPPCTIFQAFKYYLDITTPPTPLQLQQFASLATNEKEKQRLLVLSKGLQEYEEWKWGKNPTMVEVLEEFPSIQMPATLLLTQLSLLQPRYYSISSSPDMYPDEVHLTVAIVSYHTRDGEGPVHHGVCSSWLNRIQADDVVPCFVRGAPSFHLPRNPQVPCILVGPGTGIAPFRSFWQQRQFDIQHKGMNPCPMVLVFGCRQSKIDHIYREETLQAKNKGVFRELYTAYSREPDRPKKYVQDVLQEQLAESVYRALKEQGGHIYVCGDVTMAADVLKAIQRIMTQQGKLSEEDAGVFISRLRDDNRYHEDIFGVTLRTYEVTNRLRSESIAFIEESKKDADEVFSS
# T3 sequence (P14867 28-456): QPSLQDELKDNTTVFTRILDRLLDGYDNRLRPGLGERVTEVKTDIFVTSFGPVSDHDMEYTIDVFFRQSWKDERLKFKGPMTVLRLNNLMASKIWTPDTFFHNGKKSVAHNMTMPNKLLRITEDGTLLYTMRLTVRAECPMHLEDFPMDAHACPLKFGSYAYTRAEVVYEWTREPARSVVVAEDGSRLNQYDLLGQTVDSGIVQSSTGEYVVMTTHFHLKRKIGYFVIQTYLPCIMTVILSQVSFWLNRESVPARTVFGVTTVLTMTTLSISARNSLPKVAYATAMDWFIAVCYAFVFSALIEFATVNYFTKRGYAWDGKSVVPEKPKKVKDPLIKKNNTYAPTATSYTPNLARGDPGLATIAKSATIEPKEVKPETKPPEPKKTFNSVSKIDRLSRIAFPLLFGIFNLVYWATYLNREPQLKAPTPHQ
# T3 sequence (P47870 25-512 limits assumed): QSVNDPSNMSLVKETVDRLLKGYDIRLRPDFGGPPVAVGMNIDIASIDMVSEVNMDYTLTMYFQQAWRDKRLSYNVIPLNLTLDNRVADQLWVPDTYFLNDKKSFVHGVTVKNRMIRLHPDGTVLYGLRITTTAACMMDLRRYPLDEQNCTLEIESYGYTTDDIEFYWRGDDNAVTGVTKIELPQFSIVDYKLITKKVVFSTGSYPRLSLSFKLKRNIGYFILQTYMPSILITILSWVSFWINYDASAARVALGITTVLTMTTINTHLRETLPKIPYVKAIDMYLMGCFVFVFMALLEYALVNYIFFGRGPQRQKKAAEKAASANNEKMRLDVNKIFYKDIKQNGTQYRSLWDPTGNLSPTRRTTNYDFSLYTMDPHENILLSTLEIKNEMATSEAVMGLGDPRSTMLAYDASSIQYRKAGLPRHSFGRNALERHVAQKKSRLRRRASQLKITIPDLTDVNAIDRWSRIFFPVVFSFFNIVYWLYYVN
# T3 sequence (P18507 40-475): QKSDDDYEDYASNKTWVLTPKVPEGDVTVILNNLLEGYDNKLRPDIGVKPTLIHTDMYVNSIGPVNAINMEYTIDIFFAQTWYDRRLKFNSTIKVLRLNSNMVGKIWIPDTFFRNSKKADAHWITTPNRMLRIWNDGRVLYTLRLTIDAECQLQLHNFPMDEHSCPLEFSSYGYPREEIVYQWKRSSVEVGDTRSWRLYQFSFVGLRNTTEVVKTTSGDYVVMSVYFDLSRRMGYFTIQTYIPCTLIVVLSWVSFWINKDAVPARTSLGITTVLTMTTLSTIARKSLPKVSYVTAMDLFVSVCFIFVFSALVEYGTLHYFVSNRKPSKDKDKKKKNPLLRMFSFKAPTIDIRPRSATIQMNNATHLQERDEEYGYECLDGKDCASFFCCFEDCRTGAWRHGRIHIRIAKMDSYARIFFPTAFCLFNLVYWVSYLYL
# T2 sequence (P47869 29-451): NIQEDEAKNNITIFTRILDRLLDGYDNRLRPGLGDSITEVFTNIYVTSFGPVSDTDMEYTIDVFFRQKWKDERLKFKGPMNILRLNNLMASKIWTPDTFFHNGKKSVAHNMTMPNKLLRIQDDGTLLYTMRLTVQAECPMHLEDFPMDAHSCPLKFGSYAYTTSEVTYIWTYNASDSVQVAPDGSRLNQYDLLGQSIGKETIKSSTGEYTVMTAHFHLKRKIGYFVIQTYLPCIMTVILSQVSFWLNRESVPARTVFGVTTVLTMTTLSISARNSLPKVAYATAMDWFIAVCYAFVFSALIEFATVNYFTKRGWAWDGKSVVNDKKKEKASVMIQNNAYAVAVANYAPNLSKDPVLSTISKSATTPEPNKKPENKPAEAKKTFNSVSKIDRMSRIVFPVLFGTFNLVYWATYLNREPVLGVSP
# T2 sequence (P28472 26-473): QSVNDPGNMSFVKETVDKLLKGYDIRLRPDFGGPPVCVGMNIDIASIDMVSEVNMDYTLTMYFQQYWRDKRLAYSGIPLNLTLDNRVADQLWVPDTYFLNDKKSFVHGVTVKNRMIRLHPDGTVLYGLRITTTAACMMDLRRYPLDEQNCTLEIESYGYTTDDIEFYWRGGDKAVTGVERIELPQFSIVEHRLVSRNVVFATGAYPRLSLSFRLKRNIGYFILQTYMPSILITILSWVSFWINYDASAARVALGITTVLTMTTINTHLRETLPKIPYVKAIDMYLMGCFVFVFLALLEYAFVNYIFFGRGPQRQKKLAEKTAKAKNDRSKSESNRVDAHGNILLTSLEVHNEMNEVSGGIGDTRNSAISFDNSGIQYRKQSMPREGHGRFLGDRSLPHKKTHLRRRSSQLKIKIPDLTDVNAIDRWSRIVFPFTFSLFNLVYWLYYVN
# T2 sequence (P18507 40-475): as the sequence (P18507 40-475) above
# T1 sequence (P34903 29-492): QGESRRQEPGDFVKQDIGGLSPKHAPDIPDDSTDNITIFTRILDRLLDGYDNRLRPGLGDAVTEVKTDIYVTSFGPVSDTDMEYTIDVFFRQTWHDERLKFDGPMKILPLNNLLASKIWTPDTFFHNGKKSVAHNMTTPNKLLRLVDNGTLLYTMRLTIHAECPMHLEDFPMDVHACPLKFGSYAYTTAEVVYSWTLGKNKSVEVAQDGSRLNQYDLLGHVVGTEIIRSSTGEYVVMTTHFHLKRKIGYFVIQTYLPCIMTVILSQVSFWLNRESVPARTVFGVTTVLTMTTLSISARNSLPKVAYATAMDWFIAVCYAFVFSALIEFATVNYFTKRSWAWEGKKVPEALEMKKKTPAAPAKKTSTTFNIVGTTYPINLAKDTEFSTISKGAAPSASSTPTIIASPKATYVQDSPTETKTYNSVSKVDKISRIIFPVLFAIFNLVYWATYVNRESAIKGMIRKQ
# T1 sequence (P28472 26-473): as the sequence (P28472 26-473) above
# T1 sequence (P18507 40-475): as the sequence (P18507 40-475) above
smiles,measurement,setting,value
CC1(C)[C@@H]2CC[C@@]1(C)[C@@H](O)C2 [(+)-borneol],α2 subunit of GABAARs expression in the SDH,α2 subunit of GABAARs,decreased α2 and α3 subunits of GABAARs expressions
same,α3 subunit of GABAARs expression in the SDH,α3 subunit of GABAARs,decreased α2 and α3 subunits of GABAARs expressions
same,SNL-induced BDNF expression in the SDH,BDNF,significantly decreased SNL-induced BDNF expression in the SDH
same,EC50,[1],0.4236 ± 0.0014 nM
same,Emax,[1],63.1 ± 3.4%
same,"Analgesic tolerance, mechanical hyperalgesia",[2],caused analgesic tolerance development rapidly
same,Modulation of α1-containing GABAAR,α1-containing GABAAR,can positively modulate α1-containing GABAAR expressed in Xenopus laevis oocytes at high dose
same,Emax,α3β3γ2 GABAARs,109 ± 6.05%
same,Emax,α2β3γ2 GABAARs,122 ± 11%
same,Effect on GABA-evoked currents of α1-containing GABAAR (in words),α1β2γ2 GABAARs,no effect on GABA-evoked currents as high as 10 μM
same,"Locomotor activity, distance travelled during 5 min",locomotor activity,without BZDs-associated behavioral effects
same,PSD-95-nNOS complex level in the SDH,PSD-95-nNOS complex,increased nNOS-PSD-95 interaction in the SDH significantly
